Format in all cases: biochemical
For assay [1], the target named is T1, human HDAC5 catalytic domain (Homo sapiens, UniProt Q9UQL6).
T1 construct: amino acids 657-1123 with a C-terminal His tag; His (C); purchased BPS BioScience; host or cells: baculovirus expression system
Nature of the assay: Inhibition of HDAC5 catalytic domain, Boc-Lys(Tfa)-AMC substrate.

The next assay deals with T2, human HDAC9 (Homo sapiens, UniProt Q9UKV0).
T2 construct: amino acids 604-1066 with a C-terminal His tag; His (C); purchased BPS BioScience; host or cells: baculovirus expression system
Nature of the assay: Inhibition of HDAC9, Boc-Lys(Tfa)-AMC substrate.

The next assay has as its target HDAC3 (Homo sapiens, UniProt O15379). Nature of the assay: cat. HDAC3 IC50.
For the next assay, the target named is T3, HDAC6 (Homo sapiens, UniProt Q9UBN7).
T3 sequence (Q9UBN7 1-1215): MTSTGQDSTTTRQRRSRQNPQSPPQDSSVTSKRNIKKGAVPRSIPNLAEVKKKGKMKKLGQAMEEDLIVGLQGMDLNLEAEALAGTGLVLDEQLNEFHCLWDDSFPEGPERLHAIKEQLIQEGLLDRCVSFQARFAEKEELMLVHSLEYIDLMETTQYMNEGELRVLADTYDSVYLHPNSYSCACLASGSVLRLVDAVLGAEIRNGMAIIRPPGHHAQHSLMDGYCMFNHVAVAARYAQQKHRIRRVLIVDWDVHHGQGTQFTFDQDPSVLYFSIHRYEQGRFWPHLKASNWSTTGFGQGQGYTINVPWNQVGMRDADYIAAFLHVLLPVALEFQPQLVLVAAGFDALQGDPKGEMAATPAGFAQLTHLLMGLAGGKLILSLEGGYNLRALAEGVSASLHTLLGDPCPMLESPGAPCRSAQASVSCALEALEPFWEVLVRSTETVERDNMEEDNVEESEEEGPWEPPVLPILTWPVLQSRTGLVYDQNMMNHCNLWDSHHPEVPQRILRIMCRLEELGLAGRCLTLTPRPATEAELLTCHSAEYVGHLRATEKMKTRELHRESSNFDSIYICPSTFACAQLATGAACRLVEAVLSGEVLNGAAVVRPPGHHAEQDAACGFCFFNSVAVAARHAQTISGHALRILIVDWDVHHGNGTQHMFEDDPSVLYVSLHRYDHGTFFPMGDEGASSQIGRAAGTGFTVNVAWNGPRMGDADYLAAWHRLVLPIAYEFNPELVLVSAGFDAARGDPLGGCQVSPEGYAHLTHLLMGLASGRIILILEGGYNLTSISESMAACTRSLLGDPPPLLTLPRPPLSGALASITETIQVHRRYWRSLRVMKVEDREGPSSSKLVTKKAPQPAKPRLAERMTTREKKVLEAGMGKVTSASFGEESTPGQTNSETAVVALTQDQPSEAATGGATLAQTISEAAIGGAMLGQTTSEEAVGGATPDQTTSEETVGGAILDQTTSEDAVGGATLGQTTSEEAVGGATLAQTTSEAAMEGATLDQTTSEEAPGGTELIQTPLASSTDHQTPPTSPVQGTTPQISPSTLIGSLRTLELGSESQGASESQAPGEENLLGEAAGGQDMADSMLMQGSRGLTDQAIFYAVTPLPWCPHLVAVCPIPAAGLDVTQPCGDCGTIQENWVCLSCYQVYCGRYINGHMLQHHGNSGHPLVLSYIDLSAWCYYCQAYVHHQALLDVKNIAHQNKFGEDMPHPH
Nature of the assay: cat. HDAC6 IC50.

In a further assay the target is T4, HDAC8 (Homo sapiens, UniProt Q9BY41).
T4 sequence (Q9BY41 1-377): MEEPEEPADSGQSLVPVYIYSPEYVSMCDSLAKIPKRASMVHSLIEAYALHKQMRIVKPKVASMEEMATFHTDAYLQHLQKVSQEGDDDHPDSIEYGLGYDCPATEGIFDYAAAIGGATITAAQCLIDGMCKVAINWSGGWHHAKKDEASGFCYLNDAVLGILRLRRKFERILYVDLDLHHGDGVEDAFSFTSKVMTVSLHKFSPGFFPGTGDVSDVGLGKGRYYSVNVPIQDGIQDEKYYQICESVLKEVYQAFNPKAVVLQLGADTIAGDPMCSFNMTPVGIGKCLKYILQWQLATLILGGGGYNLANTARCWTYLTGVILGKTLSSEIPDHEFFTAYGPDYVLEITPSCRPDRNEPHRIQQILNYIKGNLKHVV
Nature of the assay: cat. HDAC8 IC50.

The target of the next assay is HDAC4 (Homo sapiens, UniProt P56524). Nature of the assay: HDAC4 (bioch) IC50. The settings on record: Table 4, bioch; read-out: HDAC4.
The target in the next assay is T5, human HDAC7 (Homo sapiens, UniProt Q8WUI4).
T5 construct: amino acids 518-end with a N-terminal Glutathione S-transferase (GST) tag; GST (N); purchased BPS BioScience; host or cells: baculovirus expression system
T5 sequence (Q8WUI4 518-952 limits assumed): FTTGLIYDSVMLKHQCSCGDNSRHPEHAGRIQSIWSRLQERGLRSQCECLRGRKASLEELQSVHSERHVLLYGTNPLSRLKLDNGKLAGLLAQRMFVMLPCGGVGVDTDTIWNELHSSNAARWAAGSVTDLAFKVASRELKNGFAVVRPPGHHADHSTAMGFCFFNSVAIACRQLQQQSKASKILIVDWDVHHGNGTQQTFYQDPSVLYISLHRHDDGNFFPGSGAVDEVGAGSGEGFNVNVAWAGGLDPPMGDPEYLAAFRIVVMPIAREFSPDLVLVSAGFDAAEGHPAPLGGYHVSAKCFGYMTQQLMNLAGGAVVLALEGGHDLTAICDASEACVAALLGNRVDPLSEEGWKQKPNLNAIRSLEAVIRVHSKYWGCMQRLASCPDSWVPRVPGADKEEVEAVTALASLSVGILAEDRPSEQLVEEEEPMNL
Nature of the assay: Inhibition of HDAC7, Boc-Lys(Tfa)-AMC substrate.

HDAC3, sequence (O15379 whole entry): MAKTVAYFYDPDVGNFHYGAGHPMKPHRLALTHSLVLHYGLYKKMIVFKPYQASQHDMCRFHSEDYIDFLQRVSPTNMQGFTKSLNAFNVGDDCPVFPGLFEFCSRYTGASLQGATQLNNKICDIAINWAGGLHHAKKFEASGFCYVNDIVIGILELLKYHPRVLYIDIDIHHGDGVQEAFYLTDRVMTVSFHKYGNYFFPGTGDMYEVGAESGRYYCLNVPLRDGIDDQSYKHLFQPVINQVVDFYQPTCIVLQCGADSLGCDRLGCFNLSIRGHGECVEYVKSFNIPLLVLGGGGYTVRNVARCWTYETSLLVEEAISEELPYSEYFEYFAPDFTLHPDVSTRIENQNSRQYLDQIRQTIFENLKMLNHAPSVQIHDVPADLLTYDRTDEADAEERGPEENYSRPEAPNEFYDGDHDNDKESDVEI
HDAC3, sequence (Q9Y618 395-489 partner limits assumed): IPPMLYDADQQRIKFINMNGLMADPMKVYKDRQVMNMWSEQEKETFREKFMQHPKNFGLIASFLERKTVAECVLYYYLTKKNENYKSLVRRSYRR
HDAC4, sequence (P56524 whole entry): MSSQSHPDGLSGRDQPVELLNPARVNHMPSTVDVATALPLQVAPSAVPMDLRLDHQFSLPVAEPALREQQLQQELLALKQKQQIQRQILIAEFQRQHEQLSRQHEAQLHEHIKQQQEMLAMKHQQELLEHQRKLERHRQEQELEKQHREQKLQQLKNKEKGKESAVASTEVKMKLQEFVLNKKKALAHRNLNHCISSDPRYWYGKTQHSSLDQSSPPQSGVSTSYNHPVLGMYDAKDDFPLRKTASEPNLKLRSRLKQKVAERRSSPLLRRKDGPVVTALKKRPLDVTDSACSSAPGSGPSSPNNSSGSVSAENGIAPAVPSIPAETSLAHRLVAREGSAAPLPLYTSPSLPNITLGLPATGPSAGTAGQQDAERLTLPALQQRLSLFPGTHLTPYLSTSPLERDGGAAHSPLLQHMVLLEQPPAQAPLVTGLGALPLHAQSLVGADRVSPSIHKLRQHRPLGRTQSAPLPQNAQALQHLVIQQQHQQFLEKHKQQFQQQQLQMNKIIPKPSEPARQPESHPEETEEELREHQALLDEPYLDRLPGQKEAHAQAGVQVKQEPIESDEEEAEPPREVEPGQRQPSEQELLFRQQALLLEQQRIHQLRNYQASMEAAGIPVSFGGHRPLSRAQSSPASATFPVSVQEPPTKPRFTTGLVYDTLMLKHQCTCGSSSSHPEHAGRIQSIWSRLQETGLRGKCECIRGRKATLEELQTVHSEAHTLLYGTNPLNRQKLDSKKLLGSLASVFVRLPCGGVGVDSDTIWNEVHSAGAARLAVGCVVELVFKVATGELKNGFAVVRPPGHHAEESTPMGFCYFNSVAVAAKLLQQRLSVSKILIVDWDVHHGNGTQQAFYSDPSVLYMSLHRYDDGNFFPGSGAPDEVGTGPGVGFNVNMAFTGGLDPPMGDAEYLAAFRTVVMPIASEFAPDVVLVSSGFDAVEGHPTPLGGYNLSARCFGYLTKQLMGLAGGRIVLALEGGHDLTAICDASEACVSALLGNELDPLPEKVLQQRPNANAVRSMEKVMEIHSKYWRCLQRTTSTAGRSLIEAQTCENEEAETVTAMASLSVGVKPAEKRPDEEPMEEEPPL
T2 sequence (Q9UKV0 604-1066 isoform Q9UKV0-5): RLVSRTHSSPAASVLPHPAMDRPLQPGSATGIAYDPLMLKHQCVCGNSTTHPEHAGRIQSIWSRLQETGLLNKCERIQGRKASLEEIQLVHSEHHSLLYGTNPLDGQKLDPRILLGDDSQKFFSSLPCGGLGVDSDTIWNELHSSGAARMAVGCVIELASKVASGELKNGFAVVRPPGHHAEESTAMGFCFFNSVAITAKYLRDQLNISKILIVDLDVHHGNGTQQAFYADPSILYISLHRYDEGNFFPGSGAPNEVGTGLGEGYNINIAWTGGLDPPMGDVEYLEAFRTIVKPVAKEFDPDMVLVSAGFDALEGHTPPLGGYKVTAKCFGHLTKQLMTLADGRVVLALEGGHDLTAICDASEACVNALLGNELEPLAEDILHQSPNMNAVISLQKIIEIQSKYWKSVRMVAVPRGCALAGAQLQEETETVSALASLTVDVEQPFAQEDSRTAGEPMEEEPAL
T1 sequence (Q9UQL6 656-1122): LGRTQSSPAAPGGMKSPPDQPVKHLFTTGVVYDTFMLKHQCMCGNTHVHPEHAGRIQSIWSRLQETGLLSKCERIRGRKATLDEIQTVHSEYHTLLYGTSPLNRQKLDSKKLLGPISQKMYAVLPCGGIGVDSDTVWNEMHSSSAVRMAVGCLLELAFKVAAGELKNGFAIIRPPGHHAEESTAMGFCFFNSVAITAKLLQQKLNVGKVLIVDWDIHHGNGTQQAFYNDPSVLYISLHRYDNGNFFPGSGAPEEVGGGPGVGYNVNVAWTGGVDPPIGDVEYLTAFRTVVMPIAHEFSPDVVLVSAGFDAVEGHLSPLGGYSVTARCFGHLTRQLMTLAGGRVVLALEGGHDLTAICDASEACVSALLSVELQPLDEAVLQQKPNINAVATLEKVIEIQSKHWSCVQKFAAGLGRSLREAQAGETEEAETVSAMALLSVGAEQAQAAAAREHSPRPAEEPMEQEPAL

Take `O=C(NO)C(c1ccccc1)c1ccc(-c2cncnc2)cc1` (stereo not shown) [drawing 21]: the “Fold Selectivity (bioch) HDAC5:HDAC4” value in assay [1] came out at 0.3. Further, on human HDAC9, the “Fold Selectivity (bioch) HDAC9:HDAC4” value was 1. Also, the “Fold Selectivity (bioch) HDAC3:HDAC4” value at HDAC3 came out at 320. For the same compound, the “Fold Selectivity (bioch) HDAC6:HDAC4” value at HDAC6 turned out to be 50. Also, the “Fold Selectivity (bioch) HDAC8:HDAC4” value at HDAC8 is given as 60. In addition, the IC50 on HDAC4 was determined as 90 nM. On human HDAC7, the “Fold Selectivity (bioch) HDAC7:HDAC4” value is on record as 0.8.
